Here are results for 21 compounds from ChEMBL document CHEMBL4382289, “Synthesis, Biological Evaluation and Structure-Activity Relationships of Diflapolin Analogues as Dual sEH/FLAP Inhibitors” (ACS Med Chem Lett, 2019).

pIC50: −log10 of the molar value.

Assay [1] has as its target T1, Bifunctional epoxide hydrolase 2 (Homo sapiens, UniProt P34913).
T1 sequence (P34913 whole entry): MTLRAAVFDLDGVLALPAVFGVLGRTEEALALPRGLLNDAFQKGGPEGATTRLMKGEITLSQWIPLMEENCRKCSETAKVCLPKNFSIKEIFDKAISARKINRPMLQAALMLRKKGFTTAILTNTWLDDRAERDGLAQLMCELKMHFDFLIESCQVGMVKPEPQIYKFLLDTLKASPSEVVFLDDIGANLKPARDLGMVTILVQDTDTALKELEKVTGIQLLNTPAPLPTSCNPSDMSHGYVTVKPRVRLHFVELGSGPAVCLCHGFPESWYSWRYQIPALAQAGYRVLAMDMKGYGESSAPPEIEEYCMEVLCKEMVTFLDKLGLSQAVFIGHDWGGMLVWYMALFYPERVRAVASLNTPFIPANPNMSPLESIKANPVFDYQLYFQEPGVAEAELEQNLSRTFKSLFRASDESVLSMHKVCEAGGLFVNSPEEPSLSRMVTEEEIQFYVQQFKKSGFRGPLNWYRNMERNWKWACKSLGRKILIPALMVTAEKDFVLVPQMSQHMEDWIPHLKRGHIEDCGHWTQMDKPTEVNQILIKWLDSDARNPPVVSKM
Description: Inhibition of recombinant human sEH preincubated for 10 mins followed by PHOME substrate addition and measured after 60 mins by fluorescence-based assay.

Assay [2] addresses T2, Arachidonate 5-lipoxygenase-activating protein (Homo sapiens, UniProt P20292).
T2 sequence (P20292 whole entry): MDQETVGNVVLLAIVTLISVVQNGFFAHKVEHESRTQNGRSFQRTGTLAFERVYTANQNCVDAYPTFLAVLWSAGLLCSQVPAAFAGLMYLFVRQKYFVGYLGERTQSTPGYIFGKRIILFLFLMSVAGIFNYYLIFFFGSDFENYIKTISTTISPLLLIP
In words: Inhibition of 5-LO in human neutrophils preincubated for 10 mins followed by Ca2+ ionophore A23187 addition and measured after 10 mins by RP-HPLC analysis.

For `Cc1cc(OCc2nc3ccccc3s2)ccc1NC(=O)Nc1ccc(Cl)c(Cl)c1`, the pIC50 (commonly the IC50 on a negative log10 scale, so that one unit is a factor of ten) in assay [1] is 7.64.
`O=C(Nc1ccc(CCc2nc3ccccc3s2)cc1)Nc1ccc(Cl)c(Cl)c1`: the negative logarithm of the IC50 (pIC50) in assay [1] was 7.93; in assay [2], < 5.00.
For `Cc1cc(OCc2nc3ccccc3s2)ccc1NC(=O)Nc1ccccc1Cl`, in that order: 5.82 and 6.08.
As to `O=C(Nc1ccc(Cl)cc1)Nc1ccc(OCc2nc3ccccc3s2)cc1`, the results for the negative-log IC50 (pIC50) in assay [1] and in assay [2] were 7.86 and 6.00, respectively.
Take `O=C(Nc1ccc(OCc2nc3ccccc3s2)cc1)Nc1cc(Cl)cc(Cl)c1`: the pIC50 in assay [1] is 7.82; in assay [2], 7.05.
On to `Cc1cc(OCc2nc3ccccc3s2)ccc1NC(=O)Nc1cccc(Cl)c1`, for which the pIC50 in assay [1] is 7.80; in assay [2], 6.80.
Regarding `Cc1cc(OCc2nc3ccccc3s2)ccc1NC(=O)Nc1cc(Cl)cc(Cl)c1`, the pIC50 was 7.70 in assay [1] and 7.10 in assay [2].
For `Cc1cc(NC(=O)Nc2ccccc2)ccc1OCc1nc2ccccc2s1`, in that order: 8.19 and 5.68.
`Cc1cc(NC(=O)Nc2ccc(Cl)c(Cl)c2)ccc1OCc1nc2ccccc2s1`: the negative logarithm of the IC50 (pIC50) was 9.22 in assay [1] and 5.66 in assay [2].
Consider `Cc1cc(NC(=O)Nc2ccccc2Cl)ccc1OCc1nc2ccccc2s1`, for which the negative-log IC50 (pIC50) in assay [1] was 7.45; in assay [2] it was 6.17.
For the compound `O=C(Nc1ccc(OCc2nc3ccccc3s2)cc1)Nc1cccc(Cl)c1`, the pIC50 in assay [1] was 7.59; in assay [2] it was 6.77.
As for `Cc1cc(NC(=O)Nc2ccc(Cl)cc2)ccc1OCc1nc2ccccc2s1`, the negative logarithm of the IC50 (pIC50) was 8.39 in assay [1] and < 5.00 in assay [2].
Turning to `Cc1cc(OCc2nc3ccccc3s2)ccc1NC(=O)Nc1ccc(Cl)cc1`, the pIC50 in assay [1] was 8.28; in assay [2], 6.24.
For `O=C(Nc1ccc(OCc2nc3ccccc3s2)cc1)Nc1ccccc1Cl`, in that order: 6.55 and 6.44.
For `Cc1cc(OCc2nc3ccccc3s2)ccc1NC(=O)Nc1ccccc1`, in that order: 7.21 and 6.14.
On to `Cc1cc(NC(=O)Nc2cc(Cl)cc(Cl)c2)ccc1OCc1nc2ccccc2s1`, for which the pIC50 in assay [1] is 9.10; in assay [2], 6.14.
For `O=C(Nc1ccc(SCc2nc3ccccc3s2)cc1)Nc1ccc(Cl)c(Cl)c1`, in that order: 7.60 and 5.95.
In the case of `O=C(Nc1ccc(/C=C/c2nc3ccccc3s2)cc1)Nc1ccc(Cl)c(Cl)c1`, the pIC50 in assay [1] is 8.04; in assay [2], 4.97.
For `Cc1cc(NC(=O)Nc2cccc(Cl)c2)ccc1OCc1nc2ccccc2s1`, the negative logarithm of the IC50 (pIC50) in assay [1] is 8.70; in assay [2], 5.68.
Regarding `O=C(Nc1ccc(OCc2nc3ccccc3s2)cc1)Nc1ccc(Cl)c(Cl)c1`, the pIC50 was 7.99 in assay [1] and 6.24 in assay [2].
Consider `O=C(Nc1ccccc1)Nc1ccc(OCc2nc3ccccc3s2)cc1`, for which the pIC50 was 6.95 in assay [1] and 6.38 in assay [2].
